Reference: ChEMBL document CHEMBL4651402, “Screening of ~5500 FDA-approved drugs and clinical candidates for anti-SARS-CoV-2 activity” (2021)

Test system: SARS-CoV-2
Test: microbe, parasite or virus in culture
Conditions: Severe acute respiratory syndrome coronavirus 2, Vero C1008, 48 h

SMILES: CCOc1ccc(Cc2cc([C@]34OC[C@](CO)(O3)[C@@H](O)[C@H](O)[C@H]4O)ccc2Cl)cc1 [ERTUGLIFLOZIN]
- IC50: > 20 µM
- IC50 (read-out: pIC50 (converted)): > 20 µM

SMILES: CCOC(=O)CCC(=O)O[C@H]1[C@H](O[C@@H]2[C@@H](C)[C@H](O[C@H]3C[C@@](C)(OC)[C@@H](O)[C@H](C)O3)[C@@H](C)C(=O)O[C@H](CC)[C@@](C)(O)[C@H](O)[C@@H](C)C(=O)[C@H](C)C[C@@]2(C)O)O[C@H](C)C[C@@H]1N(C)C [ERYTHROMYCIN ETHYLSUCCINATE]
- IC50: > 20 µM
- IC50 (read-out: pIC50 (converted)): > 20 µM

SMILES: CC[C@H]1OC(=O)[C@H](C)[C@@H](O[C@H]2C[C@@](C)(OC)[C@@H](O)[C@H](C)O2)[C@H](C)[C@@H](O[C@@H]2O[C@H](C)C[C@H](N(C)C)[C@H]2O)[C@](C)(O)C[C@@H](C)C(=O)[C@H](C)[C@@H](O)[C@]1(C)O [ERYTHROMYCIN]
- IC50: > 20 µM
- IC50 (read-out: pIC50 (converted)): > 20 µM

SMILES: O=C(CN1CCNCC1)NC1CCCCC1 [ESAPRAZOLE]
- IC50: > 20 µM
- IC50 (read-out: pIC50 (converted)): > 20 µM

SMILES: CC(C)NC[C@H](O)COc1ccc(CC(N)=O)cc1 [ESATENOLOL]
- IC50: > 20 µM
- IC50 (read-out: pIC50 (converted)): > 20 µM

SMILES: CN(C)CCC[C@@]1(c2ccc(F)cc2)OCc2cc(C#N)ccc21 [ESCITALOPRAM]
- IC50: > 20 µM
- IC50 (read-out: pIC50 (converted)): > 20 µM

SMILES: O=c1ccc2cc(O[C@@H]3O[C@H](CO)[C@@H](O)[C@H](O)[C@H]3O)c(O)cc2o1 [ESCULIN]
- IC50: > 20 µM
- IC50 (read-out: pIC50 (converted)): > 20 µM

SMILES: COC(=O)CCc1ccc(OCC(O)CNC(C)C)cc1 (centres undefined) [ESMOLOL]
- IC50: > 20 µM
- IC50 (read-out: pIC50 (converted)): > 20 µM

SMILES: COc1ccc2[nH]c([S@@+]([O-])Cc3ncc(C)c(OC)c3C)nc2c1 [ESOMEPRAZOLE]
- IC50: > 20 µM
- IC50 (read-out: pIC50 (converted)): > 20 µM

SMILES: CCN(CC)CC#CCOC(=O)[C@@](O)(c1ccccc1)C1CCCCC1 [ESOXYBUTYNIN]
- IC50: > 20 µM
- IC50 (read-out: pIC50 (converted)): > 20 µM

SMILES: C[C@]12CC[C@@H]3c4ccc(O)cc4CC[C@H]3[C@@H]1CC[C@@H]2OC(=O)CCC1CCCC1 [ESTRADIOL CYPIONATE]
- IC50: > 20 µM
- IC50 (read-out: pIC50 (converted)): > 20 µM

SMILES: C[C@]12CC[C@@H]3c4ccc(O)cc4CC[C@H]3[C@@H]1CC[C@@H]2O [ESTRADIOL]
- IC50: > 20 µM
- IC50 (read-out: pIC50 (converted)): > 20 µM

SMILES: C=CCc1ccc(OC)cc1 [ESTRAGOLE]
- IC50: > 20 µM
- IC50 (read-out: pIC50 (converted)): > 20 µM

SMILES: C[C@]12CC[C@@H]3c4ccc(O)cc4CC[C@H]3[C@@H]1C[C@@H](O)[C@@H]2O [ESTRIOL]
- IC50: > 20 µM
- IC50 (read-out: pIC50 (converted)): > 20 µM

SMILES: C[C@]12CC[C@@H]3c4ccc(OS(=O)(=O)O)cc4CC[C@H]3[C@@H]1CCC2=O [ESTRONE SULFURIC ACID]
- IC50: > 20 µM
- IC50 (read-out: pIC50 (converted)): > 20 µM

SMILES: C[C@]12CC[C@@H]3c4ccc(O)cc4CC[C@H]3[C@@H]1CCC2=O [ESTRONE]
- IC50: > 20 µM
- IC50 (read-out: pIC50 (converted)): > 20 µM

SMILES: CCN(CC)CCOc1ccccc1C(=O)CCc1ccccc1 [ETAFENONE]
- IC50: > 20 µM
- IC50 (read-out: pIC50 (converted)): > 20 µM

SMILES: O=C(Cn1ccnc1[N+](=O)[O-])NCCO [ETANIDAZOLE]
- IC50: > 20 µM
- IC50 (read-out: pIC50 (converted)): > 20 µM

SMILES: CCc1ccccc1-n1c(C)nc2ccccc2c1=O [ETAQUALONE]
- IC50: > 25.1 µM
- IC50 (read-out: pIC50 (converted)): > 25.1 µM

SMILES: CCOC(=O)c1cnc2c(cnn2CC)c1NN=C(C)C [ETAZOLATE]
- IC50: > 20 µM
- IC50 (read-out: pIC50 (converted)): > 20 µM

SMILES: CCC1(c2ccccc2)C(=O)N(COC)C(=O)N(COC)C1=O [ETEROBARB]
- IC50: > 20 µM
- IC50 (read-out: pIC50 (converted)): > 20 µM

SMILES: CCOC(=O)Nc1ccc2c(c1)N(C(=O)CCN(CC)CC)c1ccccc1S2 [ETHACIZINE]
- IC50: > 20 µM
- IC50 (read-out: pIC50 (converted)): > 20 µM

SMILES: C=C(CC)C(=O)c1ccc(OCC(=O)O)c(Cl)c1Cl [ETHACRYNIC ACID]
- IC50: > 20 µM
- IC50 (read-out: pIC50 (converted)): > 20 µM

SMILES: CCN1C(=O)OC(C)(C)C1=O [ETHADIONE]
- IC50: > 20 µM
- IC50 (read-out: pIC50 (converted)): > 20 µM

SMILES: CC[C@@H](CO)NCCN[C@@H](CC)CO [ETHAMBUTOL]
- IC50: > 20 µM
- IC50 (read-out: pIC50 (converted)): > 20 µM

SMILES: CCOc1ccc(Cc2nccc3cc(OCC)c(OCC)cc23)cc1OCC [ETHAVERINE]
- IC50: > 20 µM
- IC50 (read-out: pIC50 (converted)): > 20 µM

SMILES: CCOc1ccccc1C(N)=O [ETHENZAMIDE]
- IC50: > 20 µM
- IC50 (read-out: pIC50 (converted)): > 20 µM
